Measured values taken from US4975455A, “New heteroarotinoid compounds” (Adir et Cie, priority 1988, dated 1990).
Read-outs that look alike come from different tables or passages of the source.

Assays:
[1] = test system: L1210 line (mouse leukemic line); test: Inhibition of growth of L1210 line (tritiated thymidine incorporation, 48 hours); assay type: cell-based; details: L1210 cells, read-out: IC50 (50% growth inhibition)
Method: The growth of this mouse leukemic line is assessed by the capacity of the cells to incorporate tritiated thymidine. The degree of incorporation is measured 48 hours after the introduction of the test compounds into the culture medium.

[2] = Detection of an excess-vitamin A type toxicity in vivo
Excerpt: (§1) This can be reproduced experimentally in animals.
(§2) The selected treatment protocol is a daily injection for five days, repeated a second time after an interval of two days.

humeri of rat fetuses = test: Toxicity on the humeri of rat fetuses explanted in vitro (proteoglycan release); assay type: cell-based; details: 7 days of culture in vitro, in words
Method: EXAMPLE 37: STUDY OF THE TOXICITY ON THE HUMERI OF RAT FETUSES OF GESTATIONAL AGE 21 DAYS
The toxicity of retinoids can be evaluated on humeri of rat fetuses of gestational age 21 days.
The toxicity of retinoids can be evaluated on humeri of rat fetuses explanted in vitro as described by KISTLER.
Retinoid activity results in a release of proteoglycans from the bony substance. This release is assessed after 7 days of culture in vitro by assaying the concentration of proteoglycans in the medium, by the method of WITHEMAN (1973).

[3] = in vivo
Excerpt: as §1, §2

[4] = daily injection for five days, repeated after two days interval

Question: With `CCOC(=O)/C=C(C)/C=C/C=C(C)/C=C/c1c(C)cc(OC)c(C)c1C` [Etretinate, etretinate] as the compound, how does the IC50 [1] read?
Answer: 80 µM

Question: What about the alopecia [2, 4] of the same compound?
Answer: appearance of alopecia

Question: And the “fracture / bone weakening (radiography)” value [2, 4]?
Answer: bone weakening

Question: What about the weight [2, 4] of the same compound?
Answer: rapid weight loss

Question: And the “excess-vitamin A type toxicity” value ([2]; overall, in words)?
Answer: rapid weight loss, alopecia and bone weakening

Question: For `CC(=Cc1ccccc1)C1=Cc2ccccc2OC1` [Example 1, 3-(1-PHENYLPROPEN-2-YL)-2H-CHROMENE], which IC50 [1] is on record?
Answer: < 1 µM

Question: With `CC(=Cc1ccccc1)C1=Cc2cc(Cl)cc(C)c2OC1` [Example 3] as the compound, how does the IC50 [1] read?
Answer: 20 µM

Question: With `COC(=O)c1ccc(/C=C(\C)C2=Cc3ccccc3OC2)cc1` [Example 6, methyl 4-[2-(2H-chromen-3-yl)propenyl]benzoate] as the compound, how does the IC50 [1] read?
Answer: 25 µM

Question: Which IC50 [1] does the source give for `COC(=O)c1ccc(/C=C(\C)C2=Cc3cc(Cl)cc(Cl)c3OC2)cc1` [Example 8] here?
Answer: 25 µM

Question: What about the “toxicity on the humeri” value (humeri of rat fetuses) of the same compound?
Answer: complete absence of toxicity

Question: For `CCOC(=O)c1ccc(/C=C(\C)C2=Cc3ccccc3OC2)cc1` [Example 10, ethyl 4-[2-(2H-chromen-3-yl)propenyl]benzoate], which IC50 [1] is on record?
Answer: 18 µM

Question: Which IC50 [1] does the source give for `CCNC(=O)c1ccc(/C=C(\C)C2=Cc3ccccc3OC2)cc1` [Example 13, N-ethyl-4-[2-(2H-chromen-3-yl)propenyl]benzamide] here?
Answer: 3.8 µM

Question: With `CCS(=O)(=O)c1ccc(/C=C(\C)C2=Cc3ccccc3OC2)cc1` [Example 16, ethyl 4-[2-(2H-chromen-3-yl)propenyl]phenyl sulfone] as the compound, how does the IC50 [1] read?
Answer: 3.8 µM

Question: For `CCS(=O)(=O)c1ccc(C=C(C)C2=Cc3cc(Cl)cc(C)c3OC2)cc1` [Example 17], which IC50 [1] is on record?
Answer: 7.5 µM

Question: With `CCS(=O)(=O)c1ccc(C=C(C)C2=Cc3cc(C)cc(C)c3OC2)cc1` [Example 18] as the compound, how does the IC50 [1] read?
Answer: 6 µM

Question: For `CCS(=O)(=O)c1ccc(/C=C(\C)C2=Cc3cc(OC)ccc3OC2)cc1` [Example 24, ethyl 4-[2-(6-methoxy-2H-chromen-3-yl)propenyl]phenyl sulfone], which IC50 [1] is on record?
Answer: 8 µM

Question: Which results are given for `CC1=C(/C=C/C(C)=C/C=C/C(C)=C/C(=O)O)C(C)(C)CCC1` [retinoic acid]?
Answer: alopecia [3]: appearance of alopecia; weight [3]: rapid weight loss
